Laboratory results published in patent publication US7196192B2, “28-epirapalogs” (Ariad Gene Therapeutics, Inc., priority 1999, dated 2007).

Assays:
[1] = biological target: T1, transcriptional switch components containing FKBP and 2098L mutant FRB domains (Homo sapiens, UniProt P42345+P62942); test: transcription assay in engineered HD1080 cells expressing SEAP (txn 2098L); type: cell-based; conditions: HD1080 cells, FKBP and 2098L mutant FRB switch, SEAP reporter; read-out: txn 2098L EC50
T1 construct: transcriptional switchcomponents containing FKBP and 2098L mutant FRB domains, respectively; fused on or other part: The two switch components are separate chimeric proteins; Neither is given for this cell line
In short: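 HT1080-type engineered HD1080 cells constitutively express FKBP and 2098L-mutant FRB switch components and express SEAP upon compound-induced multimerization. Compound added to medium; secreted SEAP reporter measured after incubation. EC50 derived.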

[2] = biological target: FKBP (Homo sapiens, UniProt P62942); test: FKBP competitive binding assay based on fluorescence polarization (FP); conditions: competitive FP binding, fluorescein-labelled FK506 probe (AP1491); read-out: FKBP binding IC50
Protocol: A Competitive Binding FP Assay is described in detail in WO99/36553 and WO96/41865. That assay permits the in vitro measurement of an IC50 value for a given compound which reflects its ability to bind to an FKBP-protein in competition with a labeled FKBP ligand, such as, for example, FK506.
(§1) A diverse group of C7-modified 28-epirapalogs were prepared as described in Example 4.

[3] = system: murine splenocyte; test: murine splenocyte assay for immunosuppressive activity; type: cell-based; conditions: Mus musculus, Splenocyte, murine splenocyte assay, immunosuppressive activity; read-out: Splenocyte IC50
Protocol: 3. Conventional murine splenocyte assay for immunosuppressive activity.
as §1

FKBP, sequence (P62942 whole entry): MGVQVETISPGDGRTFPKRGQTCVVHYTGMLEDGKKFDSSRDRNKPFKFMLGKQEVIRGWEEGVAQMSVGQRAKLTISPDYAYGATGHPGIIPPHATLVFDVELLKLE
T1 sequence (P62942 2-108 limits assumed, stated change not applied, other chains not shown): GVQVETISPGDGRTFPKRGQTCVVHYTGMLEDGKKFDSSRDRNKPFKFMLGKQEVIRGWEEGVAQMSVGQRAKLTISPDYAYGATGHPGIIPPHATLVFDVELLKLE

Row | EC50 [1] [nM] | IC50 [2] [nM] | IC50 [3] [nM] | SMILES
1 | 12 | 63 | ~1200 | CO[C@H]1C[C@@H]2CC[C@@H](C)[C@@](O)(O2)C(=O)C(=O)N2CCCC[C@H]2C(=O)O[C@H]([C@H](C)C[C@@H]2CC[C@@H](OCc3ccccc3)[C@H](OC)C2)CC(=O)[C@H](C)/C=C(\C)[C@H](O)[C@@H](OC)C(=O)[C@H](C)C[C@H](C)/C=C/C=C/C=C/1C [43-O-benzyl-28-epirapamycin]
2 | 3 | 34 | 20 to 31 | CO[C@H]1C[C@@H]2CC[C@@H](C)[C@@](O)(O2)C(=O)C(=O)N2CCCC[C@H]2C(=O)O[C@H]([C@H](C)C[C@@H]2CC[C@@H](OC)[C@H](OC)C2)CC(=O)[C@H](C)/C=C(\C)[C@H](O)[C@@H](OC)C(=O)[C@H](C)C[C@H](C)/C=C/C=C/C=C/1C [43-O-methyl-28-epirapamycin]
